# Data reported in the METLIN SMRT retention time set (Domingo-Almenara et al. 2019).
# Assay: gradient 5% acetonitrile 3 min, to 50% in 2 min, to 85% in 15 min, held 3 min, 100 µL/min
# Conditions: column: Zorbax Extend-C18 2.1 x 50 mm; eluents: water / acetonitrile, 0.1% formic acid
# Summary of the method: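 Over 3 months, pure standards in mixtures of ~100 molecules were run by HPLC coupled to a quadrupole time-of-flight mass spectrometer in positive and negative ionization mode. The column was a Zorbax Extend-C18 (2.1 × 50 mm, 1.8 μm) at 100 μL/min, eluted with water and acetonitrile each holding 0.1% formic acid, with 40 μL dead and 900 μL dwell volumes. Retention time was determined from adduct peaks chosen by software and checked manually.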
row,SMILES,RP-LC retention time [s]
1,Cc1noc(CNC(=O)C2CCN(C(=O)Cc3cn(C)c4ccccc34)CC2)n1,656
2,CC(C)(C)NC(=O)N1CC2CC1C(=O)O2 (stereo not drawn),596
3,O=c1n(Cc2cccc(C(F)(F)F)c2)nc2ccc(S(=O)(=O)N3CCCC3)cn12,938
4,COC(=O)c1c(NCCC(C)C)c2cccc(Cl)c2[nH]c1=O,847
5,Fc1ccccc1C(c1nnc(-c2ccccc2)o1)N1CCN(c2ccccn2)CC1 (stereo not drawn),704
6,c1ccc(C(NCCNC(c2ccccc2)c2ccccc2)c2ccccc2)cc1,849
7,Cc1cccc(S(=O)(=O)N2CCC(c3nc(C(=O)N4CCOCC4)c(C)o3)CC2)c1,819
8,Cc1cccc(-c2nc(NCc3ccncc3)ncc2C(=O)O)c1,587
9,O=C(NCc1ccccc1)c1ccc(NC(=O)C2CCC2)cc1N1CCOCC1,842
10,O=S(=O)(c1ccc(-c2csc(Nc3cccc4ccccc34)n2)cc1)N1CCCCC1,1280
11,CC(C)N1C(=O)c2cccnc2Sc2cc(NC(=O)C3CCCO3)ccc21 (stereo not drawn),729
12,Cc1ccsc1-c1nnc(CC(=O)N2CCN(Cc3ccccc3)CC2)o1,630
13,Cc1cc(C(F)(F)F)nn1CC(=O)NCC1Cn2cccc2C(=O)N1CC(C)C (stereo not drawn),797
14,COCCC1(NC(=O)c2ccoc2)CCN(CC2CC2)CC1,581
15,CC(=O)c1cccc(NC(=O)c2ncn(-c3ccccc3)n2)c1,731
16,O=c1onc2cnc3ccccc3n12,822
17,CC1(C)C(=O)N(CC(=O)Nc2ccc(F)c(Cl)c2)c2ccccc21,966
18,COc1ccc(NC(=O)CSc2ccc(N3CCCC(C(=O)NC4CC4)C3)nn2)cc1 (stereo not drawn),617
19,CCOc1ccc(S(=O)(=O)N(CC(=O)N2CCNCC2)CC2CCCO2)cc1 (stereo not drawn),626
20,O=C(Cn1cnc2onc(-c3ccc(Cl)cc3)c2c1=O)N1CCCc2ccccc21,1100

row,SMILES,RP-LC retention time [s]
1,CCn1c(=O)c(C(=O)N2CCN(c3ccccn3)CC2)nc2ccccc21,588
2,Cc1cccc(NC(=O)C2CCCN(S(=O)(=O)c3c[nH]c(C(=O)N4CCCC4)c3)C2)c1C (stereo not drawn),802
3,Cc1cc(S(=O)(=O)N2CCC(n3cnnc3-c3ccccc3)CC2)ccc1Cl,869
4,CCOc1ccc(-c2noc(Cn3nc(-c4cccc(OC)c4)ccc3=O)n2)cc1,1070
5,Cc1ccc(-c2noc(-c3cccc(S(=O)(=O)N(C)Cc4ccco4)c3)n2)cc1,1260
6,C=CCn1nnc(NCc2ccc(-c3ccc(Br)cc3Br)o2)n1,1200
7,CCn1cc(CCN2CCN(S(=O)(=O)c3cc(C)cc(C)c3)CC2)c2cccnc21,698
8,Cc1ccc(C(C)NC(=O)c2ccc(CN3CCN(C(C)C)C(=O)C3=O)cc2)c(C)c1 (stereo not drawn),761
9,Cc1ccc(S(=O)(=O)N2CCCC2C(=O)Nc2nnc(-c3ccc(C)c(C)c3)o2)cc1 (stereo not drawn),872
10,Cc1cc(C)c(S(=O)(=O)N2CC(c3nc(Cc4ccccc4)no3)C2)c(C)c1,1190
11,CC(C)Oc1ccc(CN2C(=O)C3(CCOCC3)CC2c2nnnn2C(C)(C)C)cc1 (stereo not drawn),875
12,CCN(CC)CCNc1c(C)cc(CO)c(Cl)c1C,640
13,Cc1cccc(C)c1-n1ccn(Cc2nc(-c3cccc(F)c3)no2)c(=O)c1=O,901
14,COc1ccc(OC)c(CNC(=O)C2CCN(C(=O)C3Sc4ccccc4NC3=O)CC2)c1 (stereo not drawn),743
15,CCn1c(=O)sc2cc(S(=O)(=O)N3CCC(C(=O)N4CCC(C)CC4)CC3)ccc21,900
16,CCCCCNC(=O)C1CC(=O)N(CCc2c[nH]c3ccc(Cl)cc23)C1 (stereo not drawn),740
17,O=C(NCC(c1ccco1)N1CCOCC1)c1cc(-c2ccc3c(c2)CCCC3)on1 (stereo not drawn),827
18,CC1=C(c2ccc(C)c(C)c2)S(=O)(=O)N=C1N1CCC(NC(=O)C2CCCO2)CC1 (stereo not drawn),788
19,Cn1nc(CN2CCOCC2)c2c1CCN(S(=O)(=O)c1cc(F)cc(F)c1)C2,642
20,O=C(Cn1nc(C2CC2)cc1C(=O)N1CCCC1)NCc1ccc(F)cc1,738

row,SMILES,RP-LC retention time [s]
1,CC(C)c1ccc(-c2ccnc3c(C(=O)NCc4cccnc4)cnn23)cc1,723
2,COc1ccccc1-c1nc(Cn2ccnc2)no1,580
3,O=C1C2N=NN(Cc3nc(-c4cccc(C(F)(F)F)c4)no3)C2C(=O)N1c1ccc2c(c1)CCC2 (stereo not drawn),1170
4,COC(=O)C1=CN(C2CC2)c2cc(N3CCc4ccccc4C3)c(F)cc2S1(=O)=O,977
5,Cc1ccc(N2C(=O)C3N=NN(Cc4nc(-c5ccc(OC(C)C)cc5)no4)C3C2=O)cc1F (stereo not drawn),1140
6,CCN1CCn2cc(S(=O)(=O)Nc3ccc(C)cc3)cc2C1=O,723
7,Cc1cccc(Oc2nccn3c(=O)n(CC(=O)NC(C)CCc4ccccc4)nc23)c1C (stereo not drawn),976
8,CCCN1C(=O)c2c(C(=O)NCc3ccccc3F)ncn2CC1(C)C(=O)NCc1ccccc1 (stereo not drawn),812
9,CN(C(=O)Cn1cnc2c(-c3ccc(Cl)cc3)csc2c1=O)c1ccccc1,1020
10,c1cncc(CN2CC(Oc3ccc(-c4noc(-c5ccncc5)n4)cc3)C2)c1,813
11,COc1c(OP2(=S)OCC(C)(C)CO2)cnn(C2CCCCC2)c1=O,1190
12,CCOC(=O)c1ccc(NS(=O)(=O)c2cc(-c3c(CC)noc3NC(C)=O)ccc2OC)cc1,805
13,COc1ccc(NC(=O)Nc2c(-c3cccc(C)c3)nc3ccccn23)cc1,658
14,CCc1onc(C)c1C1CCCN1C(=O)CCc1ccc(OC)cc1 (stereo not drawn),839
15,CC(C)c1ccc(NC(=O)C2CCCN(C(=O)C3Sc4ccccc4NC3=O)C2)cc1 (stereo not drawn),913
16,Clc1ccc(-c2nc(-c3ccc4c(c3)ncn4CCN3CCOCC3)no2)cc1,683
17,CCS(=O)(=O)N(C1CC1)C1CCOC2(CCN(C(=O)c3sc(C)nc3C)CC2)C1 (stereo not drawn),714
18,CCOC(=O)c1c(C)[nH]c(C(=O)N2CCC(CC(=O)NCc3ccc(N(C)C)cc3)CC2)c1C,620

# Other lines, results leading:
row,RP-LC retention time [s],SMILES
1,1010,COc1ccc(NC(=O)C2(C)Oc3cccnc3N(C(C)C)C2=O)c(OC)c1 (stereo not drawn)
2,895,COc1cccc(CNC(=O)Cn2cccc2-c2nnc(-c3ccccc3)o2)c1
3,912,CC1CCN(C(=O)c2cn(-c3ccc(-c4nc(C5CC5)no4)cn3)cn2)CC1
4,833,CCc1cccc(C)c1NC(=O)Cn1c(=O)n(-c2ccccc2)c(=O)c2c1cc(C)n2C
5,1150,Cn1cc(-c2nc(C(=O)Nc3cc(F)ccc3F)cs2)c2cccnc21
6,920,Cc1cc([N+](=O)[O-])ccc1NC(=O)C1COc2ccccc2O1 (stereo not drawn)
7,1230,O=C(Nc1ccc(Br)cc1)C1CCCN(c2ncc(-c3cccc(F)c3)cn2)C1 (stereo not drawn)
8,734,COC(=O)c1ncn2c1C(=O)N(c1cccc(C)c1)C(C)(C(=O)NCc1ccc(C)cc1)C2 (stereo not drawn)
9,908,O=C(Nc1ccc(OCc2nnc(-c3ccccc3)o2)cc1)c1ccnc(Cl)c1
10,898,CCOC(=O)c1cccc(N2C=C(C#N)S(=O)(=O)c3ccccc32)c1
11,848,O=C(COc1ccccc1)N1CCc2nc(-c3ccc(Cl)cc3)ncc2C1
12,551,O=C(Nc1nccnc1C(=O)NCCCN1CCOCC1)c1ccccc1
13,785,Cc1noc(-c2ccnc(-n3ncc(C(=O)N4CCSCC4)c3C)c2)n1
14,1040,CCOC(=O)c1sc(NC(=O)c2cn(CC)c3nc(C)ccc3c2=O)nc1C
15,778,O=C(N[C@H]1C[C@@H]2C[C@H]1N(C(=O)c1ccccc1C(F)(F)F)C2)c1ccccc1
16,1070,Cc1ccc(Cn2c(=O)c(N3CCN(C(=O)Nc4ccc5c(c4)OCO5)CC3)nc3cccnc32)cc1
17,794,Cc1nc(CNC(=O)[C@H]2CCCN2S(=O)(=O)c2ccc(Br)cc2)cs1
18,816,CCC(C)NC(=O)c1ccc(-c2cccs2)nc1 (stereo not drawn)
19,772,CCCNC(=O)c1cnn(-c2cc(-c3nc(C)no3)ccn2)c1C
20,725,O=S(=O)(c1ccc(Cl)s1)N1CC(c2nc(-c3ncccn3)no2)C1
21,587,COc1cccc(-c2cc3n(n2)CCCN(C(=O)Cc2ccsc2)C3)c1
22,621,O=C(CN1C(=O)CCc2cc(Br)ccc21)N1CCN(c2ccccn2)CC1
23,545,CC1CCCCN1CCCNC(=O)CCCN1C(=O)CCn2nc(-c3cccn3C)cc21 (stereo not drawn)
24,614,CCCc1cc(N2CCN(C(=O)C3CCC3)CC2)nc2nnc(C)n12
25,611,Cc1ccc(C(=O)NCc2ccc3c(c2)ncn3C)c(C)c1
26,648,Cn1cc(CC(=O)NCc2ccc3c(c2)OCO3)c2cccnc21
27,824,Cc1cccc(C)c1NC(=O)C1CCN(S(=O)(=O)c2ccc3c(c2)NC(=O)C(C)O3)CC1 (stereo not drawn)
28,761,Cc1ccc(Cl)cc1NC(=O)N(C)CC1CCOCC1
29,775,COc1ccc(CNC(=O)CSc2nnc(-c3ccccc3)n2-n2cccc2)cc1
30,767,O=C(C1CCOC1)N1CCCn2nc(-c3ccc(Cl)cc3)cc2C1 (stereo not drawn)
